Reference: PubChem BioAssay AID1745863

Each compound was assayed against Cationic amino acid transporter 3 (Homo sapiens) (UniProt Q8WY07) (assay: SLC7A3 cationic amino acid substrate potency, dose response, HEK293 JumpIn overexpressing cells, membrane potential dye (AID 1745863)). Details: HEK293 JumpIn SLC7A3 OE, membrane potential dye FLIPR.
Sequence of Cationic amino acid transporter 3 (Homo sapiens) (Q8WY07 whole entry, looked up): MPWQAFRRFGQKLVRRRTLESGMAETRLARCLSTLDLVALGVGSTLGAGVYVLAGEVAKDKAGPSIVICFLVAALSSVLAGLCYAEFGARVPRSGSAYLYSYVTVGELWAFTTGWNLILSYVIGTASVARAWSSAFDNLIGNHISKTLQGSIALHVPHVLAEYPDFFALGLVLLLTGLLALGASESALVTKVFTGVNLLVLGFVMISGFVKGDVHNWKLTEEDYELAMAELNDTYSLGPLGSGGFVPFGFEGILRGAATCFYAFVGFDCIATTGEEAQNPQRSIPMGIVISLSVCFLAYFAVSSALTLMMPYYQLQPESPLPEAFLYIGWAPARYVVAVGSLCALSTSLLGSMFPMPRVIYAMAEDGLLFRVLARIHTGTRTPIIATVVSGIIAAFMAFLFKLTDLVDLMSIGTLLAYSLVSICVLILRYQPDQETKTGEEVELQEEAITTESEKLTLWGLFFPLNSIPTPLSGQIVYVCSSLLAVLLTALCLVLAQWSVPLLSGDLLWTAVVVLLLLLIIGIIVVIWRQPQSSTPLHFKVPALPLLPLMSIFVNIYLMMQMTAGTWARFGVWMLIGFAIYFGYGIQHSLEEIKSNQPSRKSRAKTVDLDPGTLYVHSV

| EC50 [µM] | SMILES |
| --- | --- |
| 237 | NCCC[C@H](N)C(=O)O |
| 283 | NC(N)=NCCC[C@H](N)C(=O)O |
| 158 | NCCCC[C@H](N)C(=O)O |
